# Assay results as given in patent publication US20110306606A1, “NOVEL 2,6-SUBSTITUTED-3-NITROPYRIDINE DERIVATIVE, METHOD FOR PREPARING SAME, AND PHARMACEUTICAL COMPOSITION INCLUDING SAME” (priority 2008, published 2011).
# Test system: Osteoblasts (Calvarial cells)
# Assay: not given
# Details: ICR, mouse, 72 h, 1 μM
row,SMILES,Cell viability (%) Calvarial cell [%]
1,"Cc1ccc(Nc2nc(NCC(C)C)ccc2[N+](=O)[O-])cc1 [Compound 3, 2-(4-methylphenylamino)-6-(isobutylamino)-3-nitropyridine]",102
2,"CC(C)c1nccn1-c1ccc([N+](=O)[O-])c(Nc2cccc(N)c2)n1 [Compound 75, 2-[3-(amino)phenylamino]-6-[(2-isopropyl)imidazol-1-yl]-3-nitropyridine]",103
3,"Cc1ccc(Nc2nc(N3CCC(O)CC3)ccc2[N+](=O)[O-])cc1 [Compound 5, 2-(4-methylphenylamino)-6-(4-hydroxypiperidino)-3-nitropyridine]",96
4,"Nc1ccc(Nc2nc(N3CCC(O)CC3)ccc2[N+](=O)[O-])cc1 [Compound 61, 2-[4-(amino)phenylamino]-6-(4-hydroxypiperidino)-3-nitropyridine]",102
5,"CNc1ccc([N+](=O)[O-])c(Nc2ccc(C(C)(C)C)cc2)n1 [Compound 30, 2-[4-(t-butyl)phenylamino]-6-(methylamino)-3-nitropyridine]",90
6,"COc1ccc(Nc2nc(NCC(C)C)ccc2[N+](=O)[O-])cc1 [Compound 17, 2-(4-methoxyphenylamino)-6-(isobutylamino)-3-nitropyridine]",96

# Test system: Osteoblasts (Calvarial cells)
# Assay: Cytotoxicity test (MTT)
# Details: 1 μM compound, 72 hours, in comparison with vehicle control
row,SMILES,Cell viability (%) Calvarial cell [%]
1,"CC(C)Nc1ccc([N+](=O)[O-])c(Nc2ccc(N3CCCC(C(N)=O)C3)c(F)c2)n1 (stereo not drawn) [Compound 302, 2-{[3-fluoro-4-(3-carbamoylpiperidino)]phenylamino}-6-(isopropylamino)-3-nitropyridine]",103
2,"CNc1ccc([N+](=O)[O-])c(Nc2ccc(N3CCC(C(N)=O)CC3)c(F)c2)n1 [Compound 289, 2-{[3-fluoro-4-(4-carbamoylpiperidino)]phenylamino}-6-(methylamino)-3-nitropyridine]",115
3,"CCN(CC)c1ccc(Nc2nc(NCCCn3ccnc3)ccc2[N+](=O)[O-])cc1F [Compound 189, 2-[(3-fluoro-4-diethylamino)phenylamino]-6-[(3-imidazol-1-yl)propylamino]-3-nitropyridine]",129
4,"CC(C)c1nccn1-c1ccc([N+](=O)[O-])c(Nc2ccc(N3CCNCC3)c(F)c2)n1 [Compound 219, 2-[(3-fluoro-4-piperazino)phenylamino]-6-[(2-isopropyl)imidazol-1-yl]-3-nitropyridine]",89
5,"CN(CC1OCCO1)c1ccc([N+](=O)[O-])c(Nc2ccc(C(C)(C)C)cc2)n1 [Compound 33, 2-[4-(t-butyl)phenylamino]-6-[(N-[1,3]-dioxolan-2-ylmethyl)methylamino]-3-nitropyridine]",93
6,"O=C(O)C1CCN(c2ccc(Nc3nc(NCc4cccnc4)ccc3[N+](=O)[O-])cc2F)CC1 [Compound 321, 2-{[3-fluoro-4-(4-carboxylicpiperidino)]phenylamino}-6-[(3-pyridyl)methylamino]-3-nitropyridine]",101
7,"NC(=O)C1CCN(c2ccc(Nc3nc(N4CCC(O)CC4)ccc3[N+](=O)[O-])cc2F)CC1 [Compound 293, 2-{[3-fluoro-4-(4-carbamoylpiperidino)]phenylamino}-6-(4-hydroxypiperidino)-3-nitropyridine]",104
8,"NC(=O)C1CCCN(c2ccc(Nc3nc(NCCCN4CCOCC4)ccc3[N+](=O)[O-])cc2F)C1 (stereo not drawn) [Compound 314, 2-{[3-fluoro-4-(3-carbamoylpiperidino)]phenylamino}-6-[(3-morpholin-1-yl)propylamino]-3-nitropyridine]",103
9,"CC(C)Nc1ccc([N+](=O)[O-])c(Nc2ccc(N3CCC(C(N)=O)CC3)c(F)c2)n1 [Compound 290, 2-{[3-fluoro-4-(4-carbamoylpiperidino)]phenylamino}-6-(isopropylamino)-3-nitropyridine]",119
10,NC1CCN(c2ccc([N+](=O)[O-])c(Nc3ccc(N4CCC(N)CC4)c(F)c3)n2)CC1 [Compound 256],104
11,"CC(C)c1nccn1-c1ccc([N+](=O)[O-])c(Nc2ccc(N3CCSCC3)c(F)c2)n1 [Compound 208, 2-[(3-fluoro-4-thiomorpholino)phenylamino]-6-[(2-isopropyl)imidazol-1-yl]-3-nitropyridine]",101
12,"CC1=NCCN1c1ccc([N+](=O)[O-])c(Nc2ccc(C#N)cc2)n1 [Compound 48, 2-(4-cyanophenylamino)-6-[(2-methyl-4,5-dihydro)imidazol-1-yl]-3-nitropyridine]",103
13,"CC(C)(C)Nc1ccc([N+](=O)[O-])c(Nc2ccc(N3CCNCC3)c(F)c2)n1 [Compound 222, 2-[(3-fluoro-4-piperazino)phenylamino]-6-(t-butylamino)-3-nitropyridine]",95
14,"NC(=O)C1CCCN(c2ccc(Nc3nc(NCc4ccncc4)ccc3[N+](=O)[O-])cc2F)C1 (stereo not drawn) [Compound 311, 2-{[3-fluoro-4-(3-carbamoylpiperidino)]phenylamino}-6-[(4-pyridyl)methylamino]-3-nitropyridine]",98
15,"NC1CCN(c2ccc(Nc3nc(NCCCN4CCOCC4)ccc3[N+](=O)[O-])cc2F)CC1 [Compound 260, 2-{[3-fluoro-4-(4-aminopiperidino)]phenylamino}-6-[(3-morpholin-1-yl)propylamino]-3-nitropyridine]",107
16,"Cc1ccc(Nc2nc(N(C)CC3OCCO3)ccc2[N+](=O)[O-])cc1 [Compound 4, 2-(4-methylphenylamino)-6-[(N-[1,3]-dioxolan-2-ylmethyl)methylamino]-3-nitropyridine]",104
17,"NC(=O)C1CCCN(c2ccc(Nc3nc(N4CCOCC4)ccc3[N+](=O)[O-])cc2F)C1 (stereo not drawn) [Compound 308, 2-{[3-fluoro-4-(3-carbamoylpiperidino)]phenylamino}-6-morpholino-3-nitropyridine]",109
18,"CC(C)(C)Nc1ccc([N+](=O)[O-])c(Nc2ccc(N3CCCC(C(N)=O)C3)c(F)c2)n1 (stereo not drawn) [Compound 304, 2-{[3-fluoro-4-(3-carbamoylpiperidino)]phenylamino}-6-(t-butylamino)-3-nitropyridine]",103
19,"CNc1ccc([N+](=O)[O-])c(Nc2ccc(N3CCCC(C(N)=O)C3)c(F)c2)n1 (stereo not drawn) [Compound 301, 2-{[3-fluoro-4-(3-carbamoylpiperidino)]phenylamino}-6-(methylamino)-3-nitropyridine]",95
20,"CC(C)Nc1ccc([N+](=O)[O-])c(Nc2ccc(N3CCC(C(=O)O)CC3)c(F)c2)n1 [Compound 317, 2-{[3-fluoro-4-(4-carboxylicpiperidino)]phenylamino}-6-(isopropylamino)-3-nitropyridine]",99
21,"NC(=O)C1CCN(c2ccc(Nc3nc(NCc4ccncc4)ccc3[N+](=O)[O-])cc2F)CC1 [Compound 298, 2-{[3-fluoro-4-(4-carbamoylpiperidino)]phenylamino}-6-[(4-pyridyl)methylamino]-3-nitropyridine]",108
22,"NC(=O)C1CCCN(c2ccc(Nc3nc(NCc4cccnc4)ccc3[N+](=O)[O-])cc2F)C1 (stereo not drawn) [Compound 310, 2-{[3-fluoro-4-(3-carbamoylpiperidino)]phenylamino}-6-[(3-pyridyl)methylamino]-3-nitropyridine]",97
23,"NC(=O)C1CCCN(c2ccc(Nc3nc(NCCN4CCOCC4)ccc3[N+](=O)[O-])cc2F)C1 (stereo not drawn) [Compound 313, 2-{[3-fluoro-4-(3-carbamoylpiperidino)]phenylamino}-6-[2-(morpholin-1-yl)ethylamino]-3-nitropyridine]",106
24,"CN1CCN(c2ccc([N+](=O)[O-])c(Nc3ccc(N4CCCC(CO)C4)c(F)c3)n2)CC1 (stereo not drawn) [Compound 282, 2-{[3-fluoro-4-(3-hydroxymethylpiperidino)]phenylamino}-6-(4-methylpiperazin-1-yl)-3-nitropyridine]",107
25,CN1CCN(c2ccc([N+](=O)[O-])c(Nc3ccc(-c4csc(C5CCCCC5)n4)cc3)n2)CC1 [Compound 159],100
26,"CC1CCCCN1c1ccc(Nc2nc(NCc3ccncc3)ccc2[N+](=O)[O-])cc1F (stereo not drawn) [Compound 271, 2-{[3-fluoro-4-(2-methylpiperidino)]phenylamino}-6-[(4-pyridyl)methylamino]-3-nitropyridine]",107
27,CC1=NCCN1c1ccc([N+](=O)[O-])c(Nc2ccc(N3CCCCC3C)c(F)c2)n1 (stereo not drawn) [Compound 266],121
28,"CNc1ccc([N+](=O)[O-])c(Nc2ccc(N3CCC(N)CC3)c(F)c2)n1 [Compound 248, 2-{[3-fluoro-4-(4-aminopiperidino)]phenylamino}-6-(methylamino)-3-nitropyridine]",95
29,"CC1=NCCN1c1ccc([N+](=O)[O-])c(Nc2ccc(N3CCCC(CO)C3)c(F)c2)n1 (stereo not drawn) [Compound 280, 2-{[3-fluoro-4-(3-hydroxymethylpiperidino)]phenylamino}-6-[(2-methyl-4,5-dihydro)imidazol-1-yl]-3-nitropyridine]",103
30,"CNc1ccc([N+](=O)[O-])c(Nc2ccc(N3CCCC(CO)C3)c(F)c2)n1 (stereo not drawn) [Compound 275, 2-{[3-fluoro-4-(3-hydroxymethylpiperidino)]phenylamino}-6-(methylamino)-3-nitropyridine]",121
